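Step 1: Grow cells in 96-well plates. Step 2: Expose to compound for 48 hours at 5 concentrations. Step 3: Interpolate endpoints linearly; if unreached, use highest concentration. GI50 marks 50% less growth. TGI denotes the concentration required for complete inhibition of growth.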
Columns and labels:
Assay in all cases: DTP human tumour cell line panel, 48 h
IGROV1 ovarian = test system: IGROV1 ovarian
RPMI-8226 leukemia = test system: RPMI-8226 leukemia
CAKI-1 renal = test system: CAKI-1 renal
A549 NSCLC = test system: A549 NSCLC
HOP-92 NSCLC = test system: HOP-92 NSCLC
CCRF-CEM leukemia = test system: CCRF-CEM leukemia
HCC-2998 colon = test system: HCC-2998 colon
KM12 colon = test system: KM12 colon
DU-145 prostate = test system: DU-145 prostate
HOP-62 NSCLC = test system: HOP-62 NSCLC

SMILES | GI50 (IGROV1 ovarian) [µM] | TGI (IGROV1 ovarian) [µM] | GI50 (RPMI-8226 leukemia) [µM] | TGI (RPMI-8226 leukemia) [µM] | GI50 (CAKI-1 renal) [µM] | TGI (CAKI-1 renal) [µM] | GI50 (A549 NSCLC) [µM] | TGI (A549 NSCLC) [µM] | GI50 (HOP-92 NSCLC) [µM] | TGI (HOP-92 NSCLC) [µM] | GI50 (CCRF-CEM leukemia) [µM] | TGI (CCRF-CEM leukemia) [µM] | GI50 (HCC-2998 colon) [µM] | TGI (HCC-2998 colon) [µM] | GI50 (KM12 colon) [µM] | TGI (KM12 colon) [µM] | GI50 (DU-145 prostate) [µM] | TGI (DU-145 prostate) [µM] | GI50 (HOP-62 NSCLC) [µM] | TGI (HOP-62 NSCLC) [µM]
CC(=O)c1cc(C(=O)c2ccc3c(c2)Sc2ccccc2N3)c2cc(C)ccn12 | 0.122 | > 100 | 0.233 | > 100 | 0.053 | > 100 | 0.0648 | > 100 | > 100 | > 100 | 0.257 | > 100 | 0.247 | 20.6 | 0.0425 | > 100 | 0.188 | > 100 | 0.146 | > 100
NC(N)=N/N=C/c1ccc(-c2ccc(-c3cc(Cl)cc(Cl)c3)s2)cc1 | 1.68 | 3.36 | 1.78 | 4.49 | 1.58 | 3.31 | 2.15 | 4.99 | 1.41 | 3.13 | 1.65 | 4.62 | 1.94 | 3.83 | 1.87 | 3.56 | 1.74 | 3.18 | 1.79 | 4.05
Cn1c(=O)c(Oc2ccc(F)cc2F)cc2cnc(NC3CCS(=O)(=O)CC3)nc21 | > 21.2 | > 25 | > 25 | > 25 | > 25 | > 25 | > 25 | > 25 | 5.23 | > 25 | > 25 | > 25 | > 25 | > 25 | > 25 | > 25 | > 25 | > 25 | > 14.8 | > 25
CC1(C)[C@@H](OC(=O)CCC(=O)O)CC[C@]2(C)[C@H]3C(=O)C=C4[C@@H]5C[C@@](C)(C(=O)O)CC[C@]5(C)CC[C@@]4(C)[C@]3(C)CC[C@@H]12 | 55.8 | 100 | 50.9 | 69.9 | 61.6 | 157 | 61 | 130 | 58.6 | 87.2 | 52.4 | 78.3 | 56.1 | 80.5 | 54.9 | 84.1 | 58.3 | 142 | 53.9 | 79.5
CN1C/C=C/CCOc2cccc(c2)-c2ccnc(n2)Nc2cccc(c2)C1 | 0.0324 | 0.338 | 0.058 | 0.879 | 0.039 | 0.46 | 0.0394 | 1.12 | 0.0428 | 0.242 | 0.0386 |  | 0.048 | 0.623 | 0.0333 | 0.176 | 0.0402 | 1.4 | 0.0422 | 0.376
CC(=O)N1N=C2/C(=C/c3ccc(Cl)cc3)CC(C)CC2C1c1ccc(Cl)cc1 (centres undefined) | 22.5 | 67.2 | 9.14 | 32.6 | 44.3 | > 100 | 20.6 | > 100 | 19.5 | 54 | 19.7 | 62.6 | 19.1 | 38.1 | 21.4 | 67.1 | 30.5 | > 100 | 22.1 | 54.6
Cc1cc(C(C)(C)C)cc(CNC2CCCCC2)c1O |  | 26.9 |  | 45.5 |  | 35.7 |  | 33.8 |  | 29.3 |  | 91 |  | 10.4 |  | 46.3 |  | 37.6 |  | 47.6
CN(C)c1ccc(/C=C/C2=[N+](C)c3ccccc3C2(C)C)cc1 | 2.19 | > 100 | 0.247 | 3.48 | 4.69 | > 100 | 2.64 | 14.9 | 1.8 | 9.03 | 0.456 | > 100 | 1.35 | 11.5 | 0.328 | 5.85 | 0.453 | 23.9 | 0.862 | 13.8
Cn1cc(C2=C(c3cn(C)c4ccccc34)C(=O)NC2=O)c2ccccc21 | 11.7 | > 25 | > 8.42 | > 25 | 1.2 | > 25 | 1.97 | > 25 | 1.45 | > 7.23 | 0.952 | > 25 | > 25 | > 25 | 0.948 | > 25 | 1.66 | > 25 | 1.92 | > 25
CCCCCCCCC(=O)OCC(CS[As](C)C)OC(=O)CCCCCCCC (centres undefined) | 5.1 | > 48.4 | 0.33 | 2.16 | 0.22 | 1.12 | 8.36 | 41.7 | 1.93 | 18.3 | 0.396 | 11.5 | 0.356 | 1.83 | 2.77 | 13.8 | 0.747 | 2.64 | 15.1 | 53.1
N#C[Se]CCCNS(=O)(=O)C1CC2C=CC1C2 (centres undefined) | 0.383 | 1.65 | 2.17 | 5.55 | 0.416 | 1.59 | 0.601 | 2.63 | 1.17 | 2.7 | 0.484 | 38.2 | 1.95 | 4.73 | 1.4 | 6.43 | 1.06 | 2.58 | 0.482 | 1.82
CC(C)(C)c1c2c(c(C(C)(C)C)c3c1OCN(Cc1ccccc1)C3)OCN(Cc1ccccc1)C2 |  | 45.1 |  | 44.6 |  | > 100 |  | 39.8 |  | 28.1 |  | > 100 |  | 22.3 |  | 57.8 |  | 59.7 |  | 53.5
Cc1ccc(Cl)c(Nc2ccccc2C(=O)O)c1Cl | 32.3 | 93.4 | 26.6 | 80.5 | 34.6 | > 100 | 30.4 | > 100 | 16.2 | 50 | 25.5 | 90.1 | 26.6 | 66.4 | 29.3 | 77.1 | 28.9 | 71.8 | 31.3 | > 100

— PubChem BioAssay (NCI)
